Results as given in patent publication US20220281835A1, “PHENOL DERIVATIVES FOR USE AS ANTIMICROBIAL, ANTIBACTERIAL, BACTERICIDE” (SPECIAL PRODUCT'S LINE S.P.A., priority 2019, published 2022).
Converted amounts (≈) assume the structure as drawn.

Assays:
[1] = test system: S. Aureus strain 1 (collection) mec a+; assay: MIC/MBC broth-dilution (micromethod), CLSI; type: cell-based; details: Staphylococcus aureus; for MBC: kills 99,9% of initial population
Excerpt: (§1) Determination of Minimal Inhibitory Concentration (MIC), Minimal Bactericidal Concentration (MBC), bactericidal curves and killing rate on Gram positive and Gram negative bacteria strains, for the evaluation of the bactericidal activity of compounds of example 1 (n. 1 to 14).
(§2) In details, phenotypic methods based on in vitro MIC and MBC determination have been performed on previously isolated bacterial strains, identified and characterized at the level of their antibiotic susceptibility profile. According to MIC and MBC data, the Killing Rate was calculated as the ratio between MBC and MIC on which basis it is possible to define the compounds tested as bactericides (killing rate=1-4), or bacteriostatic (killing rate >4).
(§3) Preparation of the solution containing molecules: for each molecule to be tested, solutions were made as DMSO Stock, with a concentration of 2.560 mg/ml, used to test 12 dilutions with the following scalar drug concentrations: 512-256-128-64-32-16-8-4-2-1-0.5-0.25 μg/ml. The scalar dilutions were prepared directly on plates by using Mueller Hinton Broth (MHB) as a solvent.
Bacterial suspension preparation: cryostrains preserved at −80° C. were recovered by incubation in growth medium (Brain Heart Infusion Broth, BHI) for 24-48 hours at 37° C. followed by passages in agar growth medium (Columbia Blood Agar). Colonies with less than 30 hours are suspended in MHB with the purpose to prepare a bacterial suspension with a turbidity of 0.5 MF, containing approximately 1.5×10^8 cfu/ml. This injection is additionally diluted in MHB until reaching a final concentration of 5×10^5 cfu/ml (range 3-7×10^5 cfu/ml). Identical volumes of this bacterial suspension are added on a plate, for each well containing drug scalar dilutions, to obtain a final concentration between 512 a 0.25 μg/ml. The set up of bacterial suspensions as well as the passage on slate has always been performed within 30 minutes, in order not to alter the concentration of the bacterial suspension. Simultaneously, check in broth-microdilution only with solvent (in order to exclude that the effect of growth inhibition might be due to the drug solution solvent), positive growth control in absence of DMSO and drug, and negative purity control only with injection broth are performed. As a consequence the slate is incubated at 37° C. for 24 and 48 hours in aerobes. […] The same observations are valid to evaluate 48 hours MIC. After the incubation, an equal volume of bacterial suspension from each well is plated on agar growth medium and incubated for 24-48 hours at a temperature of 37° C. in aerobes, in order to define the MBC after the incubation.
Bacterial strains: the bactericidal and/or bacteriostatic power of the synthesized compounds can be determined by using standard reference strains such as: • 1. S. Aureus ATCC 25923 res kan, tob, res streptogramine (sga-sgb, efflux), res mupirocina (at low level), res trimetoprim; • 2. S. Aureus strain 1 (collection) mec a+, res kan tob gen, res quinolones, lincosamides, res streptogramine (sga-sgb), mlsb+sa constituent, mlsb constituent, res mupirocine (low level), res trimetoprim; • 3. S. Aureus strain 2 (collection) acquired penicillinase, res kan tob, res streptogramine (sga-sgb, efflux), res mupirocine (low level), res trimetoprim; • 4. Enterococcus faecalis ATCC 51299 (str+gen res at high level, mlsb res, simil van b res); • 5. Enterococcus faecalis strain 1 (collection) (str+kan res at high level str res at high level tetracycline res); • 6. Enterococcus faecalis strain 2 (collection) (kan res at high level); • 7. E. coli of Collection: RESISTANT to ampicilline, amox+ac clav, ampicillinr+sulbactam, cefalexine, cefuroxime, cefuroxime axetil, cefixime, cefpodoxime, cefotaxime, ceftazidime, ceftriaxone, netilmicine, tobramicine, ciprofloxcine, trim/sulfametox, esbl pos, SENSITIVE to meropenem and gentamicine, INTERMEDIATE to amikacine; • 8. 8.

[2] = test system: A. baumannii of collection; assay: MIC/MBC broth-dilution (micromethod), CLSI; type: cell-based; details: Acinetobacter baumannii
Excerpt: as §1
as §2, with “Sensitivity tests have been performed in broth-dilution (micromethod) with the purpose to test the possible bacteriostatic and/or bactericidal power in different compounds, in accordance with CLSI guidelines (Clinical and Laboratory Standards Institute). In” for “In”
as §3
(§4) Bacterial suspension preparation: cryostrains preserved at −80° C. were recovered by incubation in growth medium (Brain Heart Infusion Broth, BHI) for 24-48 hours at 37° C. followed by passages in agar growth medium (Columbia Blood Agar). Colonies with less than 30 hours are suspended in MHB with the purpose to prepare a bacterial suspension with a turbidity of 0.5 MF, containing approximately 1.5×10^8 cfu/ml. This injection is additionally diluted in MHB until reaching a final concentration of 5×10^5 cfu/ml (range 3-7×10^5 cfu/ml). Identical volumes of this bacterial suspension are added on a plate, for each well containing drug scalar dilutions, to obtain a final concentration between 512 a 0.25 μg/ml. The set up of bacterial suspensions as well as the passage on slate has always been performed within 30 minutes, in order not to alter the concentration of the bacterial suspension. Simultaneously, check in broth-microdilution only with solvent (in order to exclude that the effect of growth inhibition might be due to the drug solution solvent), positive growth control in absence of DMSO and drug, and negative purity control only with injection broth are performed. As a consequence the slate is incubated at 37° C. for 24 and 48 hours in aerobes. The 24 hours MIC is considered as the minimum drug concentration able to inhibit bacterial growth, which makes it possible to observe the absence of bacterial growth and the absence of turbidity. The same observations are valid to evaluate 48 hours MIC. After the incubation, an equal volume of bacterial suspension from each well is plated on agar growth medium and incubated for 24-48 hours at a temperature of 37° C. in aerobes, in order to define the MBC after the incubation. The MBC is evaluated as the minimum concentration of drug able to kill the 99,9% of the initial bacterial population.
(§5) Bacterial strains: the bactericidal and/or bacteriostatic power of the synthesized compounds can be determined by using standard reference strains such as: • 1. S. Aureus ATCC 25923 res kan, tob, res streptogramine (sga-sgb, efflux), res mupirocina (at low level), res trimetoprim; • 2. S. Aureus strain 1 (collection) mec a+, res kan tob gen, res quinolones, lincosamides, res streptogramine (sga-sgb), mlsb+sa constituent, mlsb constituent, res mupirocine (low level), res trimetoprim; • 3. S. Aureus strain 2 (collection) acquired penicillinase, res kan tob, res streptogramine (sga-sgb, efflux), res mupirocine (low level), res trimetoprim; • 4. Enterococcus faecalis ATCC 51299 (str+gen res at high level, mlsb res, simil van b res); • 5. […]

E. coli of Collection = assay: MIC/MBC broth-dilution (micromethod), CLSI; type: cell-based; details: Escherichia coli
Excerpt: as §1
as §2, with “Sensitivity tests have been performed in broth-dilution (micromethod) with the purpose to test the possible bacteriostatic and/or bactericidal power in different compounds, in accordance with CLSI guidelines (Clinical and Laboratory Standards Institute). In” for “In”
as §3, §4, §5

[3] = test system: Enterococcus faecalis ATCC 51299; assay: MIC/MBC broth-dilution (micromethod), CLSI; type: cell-based
Excerpt: as §1
as §2, with “Sensitivity tests have been performed in broth-dilution (micromethod) with the purpose to test the possible bacteriostatic and/or bactericidal power in different compounds, in accordance with CLSI guidelines (Clinical and Laboratory Standards Institute). In” for “In”
as §3, §4, §5

[4] = test system: Enterococcus faecalis strain 1 (collection); assay: MIC/MBC broth-dilution (micromethod), CLSI; type: cell-based
Excerpt: as §1
as §2, with “Sensitivity tests have been performed in broth-dilution (micromethod) with the purpose to test the possible bacteriostatic and/or bactericidal power in different compounds, in accordance with CLSI guidelines (Clinical and Laboratory Standards Institute). In” for “In”
as §3, §4, §5

[5] = test system: Enterococcus faecalis strain 2 (collection); assay: MIC/MBC broth-dilution (micromethod), CLSI; type: cell-based; details: for MBC: E. FAECALIS strain 2, kills 99,9% of initial population
Excerpt: as §1
as §2, with “Sensitivity tests have been performed in broth-dilution (micromethod) with the purpose to test the possible bacteriostatic and/or bactericidal power in different compounds, in accordance with CLSI guidelines (Clinical and Laboratory Standards Institute). In” for “In”
as §3, §4, §5

[6] = test system: P. Aeruginosa of collection; assay: MIC/MBC broth-dilution (micromethod), CLSI; type: cell-based; details: Pseudomonas aeruginosa
Excerpt: as §1
as §2, with “Sensitivity tests have been performed in broth-dilution (micromethod) with the purpose to test the possible bacteriostatic and/or bactericidal power in different compounds, in accordance with CLSI guidelines (Clinical and Laboratory Standards Institute). In” for “In”
as §3, §4, §5

S. Aureus ATCC 25923 = assay: MIC/MBC broth-dilution (micromethod), CLSI; type: cell-based; details: Staphylococcus aureus
Excerpt: as §1
as §2, with “Sensitivity tests have been performed in broth-dilution (micromethod) with the purpose to test the possible bacteriostatic and/or bactericidal power in different compounds, in accordance with CLSI guidelines (Clinical and Laboratory Standards Institute). In” for “In”
as §3, §4, §5

[7] = test system: S. Aureus strain 2 (collection); assay: MIC/MBC broth-dilution (micromethod), CLSI; type: cell-based; details: Staphylococcus aureus
Excerpt: as §1
as §2, with “Sensitivity tests have been performed in broth-dilution (micromethod) with the purpose to test the possible bacteriostatic and/or bactericidal power in different compounds, in accordance with CLSI guidelines (Clinical and Laboratory Standards Institute). In” for “In”
as §3, §4, §5

[8] = marked *: MIC value read at 48 hours
[9] = kills 99,9% of initial population

MIC [1, 8]	MIC [2]	MIC (E. coli of Collection)	MIC ([3]; ATCC51299, E. FAECALIS ATCC 51299, values without asterisk)	MIC ([4]; E. FAECALIS strain 1, marked *: MIC value read at 48 hours)	MIC ([5]; E. FAECALIS strain 2, marked *: MIC value read at 48 hours)	MIC [6]	MIC (S. Aureus ATCC 25923; ATCC25923, values without asterisk)	MIC ([7]; values without asterisk)	MIC ([1]; values without asterisk)	melting point	MIC ([5]; E. FAECALIS strain 2, values without asterisk)	Compound	MBC [1]	MBC [2, 9]	MBC ([3]; ATCC51299, E. FAECALIS ATCC 51299, kills 99,9% of initial population)	MBC ([4]; E. FAECALIS strain 1, kills 99,9% of initial population)	MBC [5]	MBC (S. Aureus ATCC 25923; ATCC25923, kills 99,9% of initial population)	MBC [7, 9]
2 to 4 µg/mL (≈ 4.63 to 9.27 µM)	128 µg/mL (≈ 297 µM)	512 µg/mL (≈ 1190 µM)	8 µg/mL (≈ 18.5 µM)	4 to 8 µg/mL (≈ 9.27 to 18.5 µM)	4 to 8 µg/mL (≈ 9.27 to 18.5 µM)	256 µg/mL (≈ 593 µM)	2 µg/mL (≈ 4.63 µM)	4 µg/mL (≈ 9.27 µM)	–	–	–	CON=Cc1cc(/C=C/C(=O)O)ccc1-c1ccc(O)c(C23CC4CC(CC(C4)C2)C3)c1 [Compound 13, 3-[3′-Adamantan-1-yl-4′-hydroxy-2-methoxyimino-methyl-biphenyl-4-yl]-acrylic acid]	4 µg/mL (≈ 9.27 µM)	512 µg/mL (≈ 1190 µM)	32 µg/mL (≈ 74.2 µM)	16 µg/mL (≈ 37.1 µM)	16 µg/mL (≈ 37.1 µM)	4 µg/mL (≈ 9.27 µM)	32 µg/mL (≈ 74.2 µM)
–	–	–	–	–	–	–	–	–	64 µg/mL (≈ 216 µM)	218 °C	–	CC(C)(C)c1cc(-c2ccc(/C=C/C(=O)O)cc2)ccc1O [Compound 6, E-3-(3′-tert-Butyl-4′-hydroxybiphenyl-4-yl)acrylic Acid]	–	–	–	–	–	–	–
2 to 4 µg/mL (≈ 5.1 to 10.2 µM)	–	–	–	–	–	–	–	–	–	202 °C	4 µg/mL (≈ 10.2 µM)	O=C(O)/C(F)=C\c1ccc(-c2ccc(O)c(C34CC5CC(CC(C5)C3)C4)c2)cc1 [Compound 5, E-2-Fluoro-3-[3′-(adamantan-1-yl)-4′-hydroxybiphenyl-4-yl]-acrylic Acid]	8 to 16 µg/mL (≈ 20.4 to 40.8 µM)	–	–	–	16 µg/mL (≈ 40.8 µM)	–	–
